Broadly, the IC50 is the concentration that gives 50% inhibition.

The source of these data is patent publication US9247759B2, “Identification of human T2R receptors that respond to bitter compounds that elicit the bitter taste in compositions, and the use thereof in assays to identify compounds that inhibit (block) bitter taste in compositions and use thereof” (SENOMYX, INC., priority 2007, dated 2016).

Sequence of hT2R14 (Q9NYV8 whole entry): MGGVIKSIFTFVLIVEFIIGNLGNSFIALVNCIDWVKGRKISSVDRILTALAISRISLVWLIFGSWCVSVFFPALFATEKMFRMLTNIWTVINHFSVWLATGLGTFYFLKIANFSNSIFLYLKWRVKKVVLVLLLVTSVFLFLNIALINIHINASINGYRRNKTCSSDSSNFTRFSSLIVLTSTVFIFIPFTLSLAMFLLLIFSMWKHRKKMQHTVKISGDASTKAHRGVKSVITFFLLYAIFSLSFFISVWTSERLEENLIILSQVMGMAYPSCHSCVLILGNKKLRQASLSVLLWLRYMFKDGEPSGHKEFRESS

The assay deals with hT2R14 (Homo sapiens (Human), UniProt Q9NYV8). Nature of the assay: hT2R14 antagonist high-throughput FLIPR assay, stable cell line with G16g44, agonist aristolochic acid. It is filed as cell-based. Conditions: Table C; read-out: hT2R14 IC50. As for the experimental part:
The inventors also used the automated fluorimetric […] system FLIPR using a slightly different protocol. A HEK293 cell line stably expressing G16gust44 was transfected with a hT2R expression plasmid, 24 hours later, the cells are loaded and analyzed on FLIPR.
After a ligand is identified for a particular hT2R, a HEK293 cell line stably expressing both the hT2R and G16gust44 are generated, facilitating future screening assays to identify other ligands that activate the particular hT2R or which modulate (block or enhance) the activation of this hT2R by another bitter ligand such as a bitter compound contained in coffee. This avoids the need for transient transfection.
To identify antagonists, cell lines stably expressing hT2R8 and hT2R14, respectively, together with the promiscuous chimeric G16g44 protein were generated as described in previous patent applications. A high-throughput assay was established using the stable cell lines and FLIPR (Fluorescent Imaging Plate Reader). An agonist of hT2R8 or hT2R14 was used to activate the receptors up to 70-80% of their respective maximal activity. For hT2R8, the agonist used was andrographolide (200 […]); for hT2R14, it was aristolochic acid (3 μM). To identify antagonists, compounds with diverse chemical structures were added together with the agonist.
On to `CCOC(=O)C1CCC(CN(Cc2cccc(Br)c2)S(=O)(=O)c2ccc3c(c2)OCCO3)CC1` (stereo not drawn) [Example 5-116, ethyl 4-((N-(3-bromobenzyl)-2,3-dihydrobenzo[b][1,4]dioxine-6-sulfonamido)methyl) cyclohexanecarboxylate], for which the IC50 came out at 2.57 µM.

As for `CCOC(=O)C1CCC(CN(Cc2ccccc2Cl)S(=O)(=O)c2ccc(C)cc2)CC1` (stereo not drawn) [Example 5-117, ethyl 4-((N-(2-chlorobenzyl)-4-methylphenylsulfonamido)methyl) cyclohexanecarboxylate], the IC50 worked out at 2.82 µM.

As to `CCOC(=O)C1CCC(CN(Cc2ccccc2)S(=O)(=O)c2ccc(Br)cc2)CC1` (stereo not drawn) [Example 5-118, ethyl 4-((N-benzyl-4-bromophenylsulfonamido)methyl) cyclohexanecarboxylate], the IC50 came to 2.34 µM.

Turning to `CCOC(=O)C1CCC(CN(Cc2ccccc2)S(=O)(=O)c2ccc(Cl)cc2)CC1` (stereo not drawn) [Example 5-119, ethyl 4-((N-benzyl-4-chlorophenylsulfonamido)methyl) cyclohexanecarboxylate], the IC50 was 0.672 µM.

For `O=C(O)c1ccc(CN(Cc2ccccc2)S(=O)(=O)c2ccc(Cl)cc2)cc1` [Example 5-120, 4-((N-benzyl-4-chlorophenylsulfonamido)methyl)benzoic acid], the IC50 amounted to 0.394 µM.

`COc1ccc(CN(Cc2ccccc2OC)S(=O)(=O)c2ccc(C(=O)O)cc2)cc1` [Example 5-121, 4-(N-(2-methoxybenzyl)-N-(4-methoxybenzyl)sulfamoyl)benzoic acid]: the IC50 stood at 2.94 µM.

With `COc1ccc(CN(Cc2ccccc2)S(=O)(=O)c2cccc(OC)c2)cc1` [Example 5-122, N-benzyl-3-methoxy-N-(4-methoxybenzyl)benzenesulfonamide], the IC50 stood at 2.22 µM.

`COc1ccc(S(=O)(=O)N(Cc2ccc(F)cc2)CC2CCC(C(=O)O)CC2)cc1` (stereo not drawn) [Example 5-123, 4-((N-(4-fluorobenzyl)-4-methoxyphenylsulfonamido)methyl) cyclohexanecarboxylic acid]: the IC50 is 0.092 µM.

With `CC(=O)Nc1ccc(S(=O)(=O)N(Cc2ccc(F)cc2)CC2CCC(C(=O)O)CC2)cc1` (stereo not drawn) [Example 5-124, 4-((4-acetamido-N-(4-fluorobenzyl)phenylsulfonamido)methyl) cyclohexanecarboxylic acid], the IC50 worked out at 0.842 µM.

For `Nc1ccc(S(=O)(=O)N(Cc2ccc(F)cc2)CC2CCC(C(=O)O)CC2)cc1` (stereo not drawn) [Example 5-125, 4-((4-amino-N-(4-fluorobenzyl)phenylsulfonamido)methyl) cyclohexanecarboxylic acid], the IC50 is 1.65 µM.

Consider `Cc1ccc(CN(CC2CCC(C(=O)O)CC2)S(=O)(=O)c2ccc(C)cc2)cc1` (stereo not drawn) [Example 5-126, 4-((4-methyl-N-(4-methylbenzyl)phenylsulfonamido)methyl) cyclohexanecarboxylic acid], for which the IC50 amounted to 0.109 µM.

Turning to `Cc1ccc(S(=O)(=O)N(Cc2ccc(C#N)cc2)CC2CCC(C(=O)O)CC2)cc1` (stereo not drawn) [Example 5-127, 4-((N-(4-cyanobenzyl)-4-methylphenylsulfonamido)methyl) cyclohexanecarboxylic acid], the IC50 is 0.499 µM.

In the case of `COc1cccc(CN(CC2CCC(C(=O)O)CC2)S(=O)(=O)c2ccc(C)cc2)c1` (stereo not drawn) [Example 5-128, 4-((N-(3-methoxybenzyl)-4-methylphenylsulfonamido)methyl) cyclohexanecarboxylic acid], the IC50 came out at 0.036 µM.

With `COc1ccc(CN(Cc2ccccc2C)S(=O)(=O)c2ccc(C(=O)O)cc2)cc1` [Example 5-129, 4-(N-(4-methoxybenzyl)-N-(2-methylbenzyl)sulfamoyl)benzoic acid], the IC50 was determined as 5.32 µM.

`COc1ccc(CN(Cc2ccccc2Cl)S(=O)(=O)c2ccc(C(=O)O)cc2)cc1` [Example 5-130, 4-(N-(2-chlorobenzyl)-N-(4-methoxybenzyl)sulfamoyl)benzoic acid]: the IC50 amounted to 7.04 µM.

For the molecule `O=C(O)c1ccc(S(=O)(=O)N(Cc2ccccc2)Cc2ccc(F)cc2)cc1` [Example 5-131, 4-(N-benzyl-N-(4-fluorobenzyl)sulfamoyl)benzoic acid], the IC50 is 8.28 µM.

Turning to `Cc1ccc(CN(Cc2ccccc2)S(=O)(=O)c2ccc(C(=O)O)cc2)cc1` [Example 5-132, 4-(N-benzyl-N-(4-methylbenzyl)sulfamoyl)benzoic acid], the IC50 was found to be 5.39 µM.

For `COc1ccccc1CN(Cc1ccccc1)S(=O)(=O)c1ccc(C(=O)O)cc1` [Example 5-133, 4-(N-benzyl-N-(2-methoxybenzyl)sulfamoyl)benzoic acid], the IC50 was found to be 5.06 µM.

Take `O=C(O)c1ccc(S(=O)(=O)N(Cc2ccccc2)Cc2ccccc2F)cc1` [Example 5-134, 4-(N-benzyl-N-(2-fluorobenzyl)sulfamoyl)benzoic acid]: the IC50 worked out at 6.16 µM.

For `Cc1cccc(CN(Cc2ccccc2)S(=O)(=O)c2ccc(C(=O)O)cc2)c1` [Example 5-135, 4-(N-benzyl-N-(3-methylbenzyl)sulfamoyl)benzoic acid], the IC50 worked out at 2.29 µM.

`COc1cccc(CN(Cc2ccccc2)S(=O)(=O)c2ccc(C(=O)O)cc2)c1` [Example 5-136, 4-(N-benzyl-N-(3-methoxybenzyl)sulfamoyl)benzoic acid]: the IC50 is 5.99 µM.

Turning to `O=C(O)c1ccc(S(=O)(=O)N(Cc2ccccc2)Cc2ccc(Cl)cc2)cc1` [Example 5-137, 4-(N-benzyl-N-(4-chlorobenzyl)sulfamoyl)benzoic acid], the IC50 stood at 3.98 µM.

For `CSc1ccc(CN(Cc2ccccc2)S(=O)(=O)c2ccc(C(=O)O)cc2)cc1` [Example 5-138, 4-(N-benzyl-N-(4-(methylthio)benzyl)sulfamoyl)benzoic acid], the IC50 is 2.46 µM.

Consider `O=C(O)c1ccc(S(=O)(=O)N(Cc2ccccc2)Cc2cccc(F)c2)cc1` [Example 5-139, 4-(N-benzyl-N-(3-fluorobenzyl)sulfamoyl)benzoic acid], for which the IC50 was 2.31 µM.

`Cc1ccccc1CN(Cc1ccccc1)S(=O)(=O)c1ccc(C(=O)O)cc1` [Example 5-140, 4-(N-benzyl-N-(2-methylbenzyl)sulfamoyl)benzoic acid]: the IC50 was found to be 2.93 µM.

For `O=C(O)c1ccc(S(=O)(=O)N(Cc2ccccc2)Cc2ccccc2Cl)cc1` [Example 5-141, 4-(N-benzyl-N-(2-chlorobenzyl)sulfamoyl)benzoic acid], the IC50 was determined as 4.49 µM.

With `O=C(O)c1ccc(S(=O)(=O)N(Cc2ccccc2)Cc2cccc(Cl)c2)cc1` [Example 5-142, 4-(N-benzyl-N-(3-chlorobenzyl)sulfamoyl)benzoic acid], the IC50 amounted to 4.29 µM.

Turning to `CCc1ccc(CN(Cc2ccccc2)S(=O)(=O)c2ccc(C(=O)O)cc2)cc1` [Example 5-143, 4-(N-benzyl-N-(4-ethylbenzyl)sulfamoyl)benzoic acid], the IC50 was found to be 8.58 µM.

Consider `COc1ccc(CN(Cc2ccccc2)S(=O)(=O)c2ccc(C(=O)O)cc2)cc1C` [Example 5-144, 4-(N-benzyl-N-(4-methoxy-3-methylbenzyl)sulfamoyl)benzoic acid], for which the IC50 amounted to 2 µM.

Regarding `COc1ccc(CN(Cc2ccccc2)S(=O)(=O)c2ccc(C(=O)O)cc2)cn1` [Example 5-145, 4-(N-benzyl-N-((6-methoxypyridin-3-yl)methyl)sulfamoyl)benzoic acid], the IC50 came out at 3.26 µM.

Regarding `N#Cc1ccc(CN(Cc2ccccc2)S(=O)(=O)c2ccc(C(=O)O)cc2)cc1` [Example 5-146, 4-(N-benzyl-N-(4-cyanobenzyl)sulfamoyl)benzoic acid], the IC50 came to 1.85 µM.

For `N#Cc1ccccc1CN(Cc1ccccc1)S(=O)(=O)c1ccc(C(=O)O)cc1` [Example 5-147, 4-(N-benzyl-N-(2-cyanobenzyl)sulfamoyl)benzoic acid], the IC50 was 4.63 µM.

Take `O=C(O)c1ccc(S(=O)(=O)N(Cc2ccccc2)Cc2ccc3c(c2)OCO3)cc1` [Example 5-148, 4-(N-(benzo[d][1,3]dioxol-5-ylmethyl)-N-benzylsulfamoyl)benzoic acid]: the IC50 is 2.17 µM.

As to `COc1ccc(CN(C(C)c2ccccc2)S(=O)(=O)c2ccc(C(=O)O)cc2)cc1` (stereo not drawn) [Example 5-149, 4-(N-(4-methoxybenzyl)-N-(1-phenylethyl)sulfamoyl)benzoic acid], the IC50 turned out to be 1.4 µM.

In the case of `COc1ccc(CN(C2CCCc3ccccc32)S(=O)(=O)c2ccc(C(=O)O)cc2)cc1` (stereo not drawn) [Example 5-150, 4-(N-(4-methoxybenzyl)-N-(1,2,3,4-tetrahydronaphthalen-1-yl)sulfamoyl)benzoic acid], the IC50 was found to be 2.42 µM.

`COc1ccc2c(c1)-c1ccccc1CN(S(=O)(=O)c1ccc(C(=O)O)cc1)C2` [Example 5-158, 4-(2-methoxy-5H-dibenzo[c,e]azepin-6(7H)-ylsulfonyl)benzoic acid]: the IC50 amounted to 3.57 µM.

As to `COc1ccc(CN(Cc2ccc(F)cc2F)S(=O)(=O)c2ccc(C(=O)O)cc2)cc1` [Example 5-160, 4-(N-(2,4-difluorobenzyl)-N-(4-methoxybenzyl)sulfamoyl)benzoic acid], the IC50 is 1.26 µM.

As to `COc1ccc(C2Cc3ccccc3CN2S(=O)(=O)c2ccc(C(=O)O)cc2)cc1` (stereo not drawn) [Example 5-161, 4-(3-(4-methoxyphenyl)-3,4-dihydroisoquinolin-2(1H)-ylsulfonyl)benzoic acid], the IC50 came out at 6.27 µM.

Consider `COc1ccc2c(c1)CCN(S(=O)(=O)c1ccc(C(=O)O)cc1)C2c1ccccc1` (stereo not drawn) [Example 5-162, 4-(6-methoxy-1-phenyl-3,4-dihydroisoquinolin-2(1H)-ylsulfonyl)benzoic acid], for which the IC50 was 9.62 µM.
